Laboratory results taken from US6143730A, “Preparation and use of sulfated oligosaccharides” (priority 1995, dated 2000).
Values after ≈ are worked out from the molar mass of the structure shown. Like-named read-outs stand apart in the source and are kept apart here. Blank lines part the entries; values can stand above or below the molecule they belong to.

How the values were obtained:
[1] = target: aFGF (Homo sapiens, UniProt P05230); experiment: Binding of BALB/c 3T3 cells (cell surface heparan sulfate) to immobilised aFGF; assay type: cell-based; details: binding of mouse 3T3 cells to immobilised aFGF
Sequence of aFGF (P05230 whole entry, species assumed): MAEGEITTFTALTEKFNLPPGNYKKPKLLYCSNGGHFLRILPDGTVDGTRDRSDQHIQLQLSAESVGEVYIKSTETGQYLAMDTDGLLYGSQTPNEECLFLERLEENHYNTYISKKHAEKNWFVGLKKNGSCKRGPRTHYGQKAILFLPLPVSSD
Method: (§1) The FGF-heparan sulfate interaction was assessed, as reported earlier (39), by measuring the binding of BALB/c 3T3 fibroblasts to PVC immobilised FGFs, cell binding being detected by Rose Bengal staining of adherent cells. Sulfated oligosaccharides were examined for their ability to inhibit this cell adhesion process, which is totally dependent upon heparan sulfate structures on the surface of BALB/c 3T3 cells (39).

[2] = target: bFGF (Homo sapiens, UniProt P09038); experiment: Binding of BALB/c 3T3 cells (cell surface heparan sulfate) to immobilised bFGF; assay type: cell-based; details: binding of mouse 3T3 cells to immobilised bFGF
Sequence of bFGF (P09038 134-288, species assumed): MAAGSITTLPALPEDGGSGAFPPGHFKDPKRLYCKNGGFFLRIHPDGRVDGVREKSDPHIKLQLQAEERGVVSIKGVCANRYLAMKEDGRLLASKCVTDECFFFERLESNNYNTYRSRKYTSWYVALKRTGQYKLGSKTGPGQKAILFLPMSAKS
Method: as §1

[3] = tested on: thrombin time and activated partial thromboplastin time; experiment: Anticoagulant activity (thrombin time and activated partial thromboplastin time); assay type: biochemical; details: percentage of heparin activity (100%)
Method: The anticoagulant activity of each sulfated oligosaccharide was assessed as previously described (35), using both thrombin time and activated partial thromboplastin time procedures. The activity of each preparation was compared with a heparin control and anticoagulant activity expressed as a percentage of heparin activity.

[4] = target: T1, human platelet heparanase (Homo sapiens, UniProt Q9Y251); experiment: Heparanase inhibition assay; assay type: biochemical
T1 construct: from tissue; host or cells: human platelets
T1 sequence (Q9Y251 158-543 limits assumed): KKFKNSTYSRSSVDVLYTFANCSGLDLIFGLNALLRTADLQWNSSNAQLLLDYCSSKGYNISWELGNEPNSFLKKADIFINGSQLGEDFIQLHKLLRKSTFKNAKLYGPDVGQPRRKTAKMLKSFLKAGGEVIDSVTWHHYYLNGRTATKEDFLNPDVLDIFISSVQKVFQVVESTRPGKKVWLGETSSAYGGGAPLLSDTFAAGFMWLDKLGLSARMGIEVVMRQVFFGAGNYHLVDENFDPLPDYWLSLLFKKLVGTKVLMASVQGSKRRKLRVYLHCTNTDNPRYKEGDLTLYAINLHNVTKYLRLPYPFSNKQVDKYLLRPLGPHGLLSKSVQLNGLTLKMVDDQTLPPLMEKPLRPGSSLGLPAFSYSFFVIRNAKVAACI
T1 sequence (Q9Y251 36-109 limits assumed): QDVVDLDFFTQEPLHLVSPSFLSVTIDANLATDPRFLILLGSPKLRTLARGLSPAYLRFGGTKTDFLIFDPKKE
Description: The heparanase assay is based on the observation that the serum protein, histidine-rich glycoprotein (HRG), binds to heparan sulfate chains and masks the heparanase cleavage site. Based on the finding that heparanase-cleaved heparan sulfate fails to bind to HRG a heparanase assay has been developed which involves digesting ^3 H-labelled heparan sulfate chains with heparanase, binding the digested heparan sulfate to HRG coupled beads and measuring unbound ^3 H label. With increasing digestion of the substrate an increasing amount of ^3 H label fails to bind to the HRG beads.
Initially, bovine intestinal heparan sulfate (Mr av 32 kDa) was partially de-N-acetylated by heating in hydrazine hydrate (36) and re-acetylated with ^3 H-acetic anhydride.
Activity was determined by the rate of production of smaller (approx 5 kDa) heparan sulfate fragments that were not bound following passage of the incubation mixture (100 μl) through HRG-Sepharose mini-columns (200 μl packed beads) which retained the larger uncleaved and partially cleaved substrate.
In heparanase-inhibition assays, different concentrations of inhibitor were added to the enzyme prior to addition of radiolabelled substrate, the inhibitor being retained in the reaction mixture throughout the incubation period.

[5] = tested on: air pouch inflammation; experiment: Air pouch inflammation model (thioglycollate); assay type: in vivo, mouse; details: 25 mg/kg subcut., ± SEM
Method: The assay is based on a previously reported procedure (40). Subcutaneous air pouches were formed on the backs of mice by injecting 5 ml of sterile air below the skin of a shaved area between the scapulae of an anaesthetised mouse on day 1. On day 3 the pouch was reinflated by the injection of 2.5 ml of air. Inflammation was induced on day 6 by injecting directly into the pouch 1.0 ml of 56 mg/ml thioglycollate or 1.0 ml of saline as a control. Approximately 17-20 hrs after thioglycollate injection the animals were killed by cervical dislocation and the cellular contents of the pouch retrieved by the injection of 2.5 ml of ice cold PBS/5% FCS. Sulfated oligosaccharides were tested for their ability to inhibit the inflammatory reaction by being injected subcut. (50 μl in PBS) in a separate site immediately following administration of the thioglycollate. Prednisolone was used as a control anti-inflammatory drug, being injected subcut. in oil at 25 mg/kg. The total cellular contents of each pouch was determined using a Coulter Counter and different leukocyte subpopulations were assessed by immunofluorescent flow cytometry.

[6] = target: T1, human platelet heparanase; details: reference 42; cited from earlier work
[7] = tested on: rat mammary adenocarcinoma 13762 MAT; experiment: Metastasis assay (lung metastases of 13762 MAT); assay type: in vivo; details: for Metastasis (% Control): 13762 MAT cells i.v., 2 mg/rat at time of tumour cell injection, lungs, ± SEM (n = 4)
Method: The antimetastatic activity of the different sulfated oligosaccharides was assessed using the highly metastatic rat mammary adenocarcinoma 13762 MAT (35). The tumour cells were maintained in vitro as previously described (35). Female Fisher 344 rats, (10-13 weeks of age) were injected i.v. with 2×10^5 13762 MAT cells in 0.6 ml RPMI 1640 medium containing 10% FCS. At the time of tumour cell injection animals were also injected with 2 mg of sulfated oligosaccharide, similar results being obtained if the oligosaccharide was injected i.v., i.p. or subcut. Lungs were removed from the rats 13 days following tumour cell injection, placed in Bouin's solution for at least 24 hours and lung metastases then assessed under a dissecting microscope. The number of lung metastases in sulfated oligosaccharide treated rats was compared with that observed in control animals, with a minimum of four animals being included in each group.

[8] = tested on: human angiogenesis in vitro; experiment: Human angiogenesis assay (placental blood vessel fragments in fibrin gel); assay type: cell-based; details: for inhibition of human angiogenesis: in words
Method: The assay method used is described in International Patent Application No. PCT/AU95/00105, the disclosure of which is incorporated herein by reference. Blood vessels, approx 1-2 mm in diameter and 2-5 cm in length, were excised from the surface of human placentas within 6 hours of birth. The vessels were placed in Hank's BSS containing […] of fungizone and cut into 1-2 mm length fragments using fine dissecting forceps and iridectomy scissors. Vessel fragments were freed of residual clots and soaked in Hank's BSS before use. Dissecting and sectioning of vessels was performed with the aid of a magnifier lamp (Maggylamp, Newbound, Balmain, NSW, Australia). Similar angiogenic responses were obtained from blood vessels of venular and arterial origin but, for each assay, vessel fragments from only one vessel were used.
Angiogenesis assays were performed in 24 or 48 well culture plates (Costar, Cambridge, Mass.). In the 24 well format, 30 μl of bovine thrombin (50 NIH units/ml in 0.15 M NaCl; Sigma Chemical Co., St Louis, Mo.) was added to each well followed by 1.0 ml/well of 3 mg/ml bovine fibrinogen (Sigma) in Medium 199. The thrombin and fibrinogen were mixed rapidly and one vessel fragment quickly placed in the centre of the well before clot formation. Usually fibrin gel formation occurred in 30 seconds and the vessel fragment was left suspended in the gel. Following gel formation 1.0 ml/well of Medium 199 supplemented with 20% foetal calf serum (FCS), 0.2 mg ε-amino caproic acid, L-glutamine and antibiotics (gentamycin and fungazone) was added. In the 48 well format all reagent volumes were halved. Vessels were cultured at 37° C. in a humidified environment for 14-21 days with the medium being changed twice weekly. Angiogenesis was quantified by computer based image analysis, using NIH Image software, of digital images of the cultures obtained with a Dycam digital camera mounted on an inverted microscope (Olympus, Tokyo, Japan).

[9] = tested on: human angiogenesis in vitro; details: reference 42; cited from earlier work

Molecule: O=S(=O)(O)OC[C@H]1O[C@H](O[C@H]2[C@H](OS(=O)(=O)O)[C@@H](OS(=O)(=O)O)[C@@H](O[C@H]3[C@H](OS(=O)(=O)O)[C@@H](OS(=O)(=O)O)[C@@H](O[C@H]4[C@H](OS(=O)(=O)O)[C@@H](OS(=O)(=O)O)C(OS(=O)(=O)O)O[C@@H]4COS(=O)(=O)O)O[C@@H]3COS(=O)(=O)O)O[C@@H]2COS(=O)(=O)O)[C@H](OS(=O)(=O)O)[C@@H](OS(=O)(=O)O)[C@@H]1O[C@H]1O[C@H](COS(=O)(=O)O)[C@@H](O[C@H]2O[C@H](COS(=O)(=O)O)[C@@H](OS(=O)(=O)O)[C@H](OS(=O)(=O)O)[C@H]2OS(=O)(=O)O)[C@H](OS(=O)(=O)O)[C@H]1OS(=O)(=O)O (some centres unmarked) [Maltohexaose 20/20]
IC50 ([1]; read-out: IC50 aFGF, Table 2): 7.6 µM | IC50 ([2]; read-out: IC50 bFGF, Table 2): 2.08 µM | Anticoagulant Activity ([3]; Table 2): 3.3% | IC50 ([4]; read-out: IC50 Heparanase, Table 2): 1.93 µM

Molecule: C[C@]12C=CC(=O)C=C1CC[C@@H]1[C@@H]2[C@@H](O)C[C@@]2(C)[C@H]1CC[C@]2(O)C(=O)CO [Prednisolone]
Leukocyte Infiltrate in Air Pouch (% Control) ([5]; Expt 1): 56 ± 14% | Leukocyte Infiltrate in Air Pouch (% Control) ([5]; Expt 2): 44 ± 3%

IC50 ([8]; Homo sapiens, Table 1, added at commencement of culture, read-out: 50% Inhibitory Concn, Angiogenesis): 50 µg/mL (≈ 38.5 µM)
Molecule: Cc1ccc(C(=O)Nc2ccc(S(=O)(=O)O)c3cc(S(=O)(=O)O)cc(S(=O)(=O)O)c23)cc1NC(=O)c1cccc(NC(=O)Nc2cccc(C(=O)Nc3cc(C(=O)Nc4ccc(S(=O)(=O)O)c5cc(S(=O)(=O)O)cc(S(=O)(=O)O)c45)ccc3C)c2)c1 [Suramin]
heparanase inhibitory activity [6]: moderate anti-angiogenic and heparanase inhibitory activity | Metastasis (% Control) [7]: 74 ± 8% | Anticoagulant Activity ([3]; Table 1): 0.1% | anti-angiogenic activity [9]: moderate anti-angiogenic and heparanase inhibitory activity

IC50 bFGF ([2]; Table 3): 9 µg/mL | IC50 Heparanase ([4]; Table 3): 3.5 µg/mL
Molecule: Galactotetraose
Anticoagulant Activity ([3]; Table 3): 1.0%

50% Inhibitory Concn, Heparanase ([4]; Table 1): 1 µg/mL
Molecule: Heparin
Metastasis (% Control) [7]: 20 ± 3% | 50% Inhibitory Concn, Angiogenesis ([8]; Table 1, added at commencement of culture): > 2000 µg/mL | inhibition of human angiogenesis [8]: little anti-angiogenic activity | Anticoagulant Activity ([3]; Table 1): 100%

IC50 aFGF ([1]; Table 2): 27 µg/mL | IC50 bFGF ([2]; Table 2): 10 µg/mL | IC50 Heparanase ([4]; Table 2): 3 µg/mL
Molecule: Maltoheptaose
Anticoagulant Activity ([3]; Table 2): 3.9%

IC50 aFGF ([1]; Table 2): 27 µg/mL | IC50 bFGF ([2]; Table 2): 37.5 µg/mL | IC50 Heparanase ([4]; Table 2): 4 µg/mL
Molecule: Maltopentaose
antimetastatic activity ([7]; in words): potent antimetastatic and anti-angiogenic activity | inhibition of human angiogenesis [8]: potent antimetastatic and anti-angiogenic activity | Anticoagulant Activity ([3]; Table 2): 3.2%

IC50 aFGF ([1]; Table 2): 58.7 µg/mL | IC50 bFGF ([2]; Table 2): 145 µg/mL | IC50 Heparanase ([4]; Table 2): 100 µg/mL | heparanase inhibitory activity ([4]; in words): weakly inhibitory
Molecule: Maltotriose
Anticoagulant Activity ([3]; Table 2): 0.8%

IC50 aFGF ([1]; Table 3): 5 µg/mL | IC50 bFGF ([2]; Table 3): 11 µg/mL | IC50 Heparanase ([4]; Table 3): 3 µg/mL
Molecule: Mannohexaose
Anticoagulant Activity ([3]; Table 3): 0.8%

IC50 aFGF ([1]; Table 3): 5 µg/mL | IC50 bFGF ([2]; Table 3): 20 µg/mL | IC50 Heparanase ([4]; Table 3): 6 µg/mL
Molecule: Mannotetraose
Anticoagulant Activity ([3]; Table 3): 0.4%

IC50 Heparanase ([4]; Table 3): 25 µg/mL
Molecule: Mannotriose
Anticoagulant Activity ([3]; Table 3): 0.3%
